Experimental data from patent publication US20230278972A1, “SUBSTITUTED HALOALKYL SULFONANILIDE HERBICIDES” (FMC Corporation, priority 2020, published 2023).

Assays:
Type in all cases: in vivo
[1] = test system: ragweed (common ragweed, Ambrosia artemisiifolia); assay: Test A preemergence, ragweed; conditions: Preemergence; for Plant response rating, Ragweed: 0 to 100 scale (0 no effect, 100 complete control); for Ragweed plant response rating: 125 g ai/ha, visual injury on 0 to 100 scale (0 no effect, 100 complete control), approximately 10 days
Method in brief: (§1)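 Formulated with a surfactant in a non-phytotoxic solvent, compounds are applied to loam–sand pots, either to bare soil immediately after seeding (preemergence) or to seedlings of 2 to 10 cm bearing one to two leaves (postemergence).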

[2] = test system: pigweed (Amaranthus retroflexus); assay: Test A preemergence, pigweed; conditions: for Plant response rating, Pigweed: 0 to 100 scale (0 no effect, 100 complete control); for Pigweed plant response rating: 125 g ai/ha, visual injury on 0 to 100 scale (0 no effect, 100 complete control), approximately 10 days
Method in brief: (§2)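 Seeds are sown in loam mixed with sand and sprayed on the soil surface right after planting for the preemergence test. Postemergence pots are sprayed once seedlings reach 2 to 10 cm at the one- to two-leaf stage. The same surfactant-containing, non-phytotoxic solvent formulation serves both.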

[3] = test system: Foxtail, Giant (giant foxtail, Setaria faberi); assay: Test A postemergence, Foxtail, Giant; conditions: Postemergence; for Foxtail, Giant plant response rating: 500 g ai/ha, visual injury vs untreated controls after approx. 10 days
Method in brief: as §1

kochia (Bassia scoparia) [4] = assay: Test A postemergence, kochia; conditions: Postemergence; for Kochia plant response rating: 500 g ai/ha, visual injury vs untreated controls after approx. 10 days
Method in brief: as §1

[5] = test system: barnyardgrass (Echinochloa crus-galli); assay: Test A preemergence, barnyardgrass; conditions: Preemergence; for Plant response rating, Barnyardgrass: 0 to 100 scale (0 no effect, 100 complete control); for Barnyardgrass plant response rating: 125 g ai/ha, visual injury on 0 to 100 scale (0 no effect, 100 complete control), approximately 10 days
Method in brief: as §1

[6] = test system: Ryegrass, Italian (Italian ryegrass, Lolium multiflorum); assay: Test A postemergence, Ryegrass, Italian; conditions: Postemergence; for Ryegrass, Italian plant response rating: 500 g ai/ha, visual injury vs untreated controls after approx. 10 days
Method in brief: as §1

[7] = test system: ragweed (common ragweed, Ambrosia artemisiifolia); assay: Test A postemergence, ragweed; conditions: Postemergence; for Ragweed plant response rating: 500 g ai/ha, visual injury vs untreated controls after approx. 10 days
Method in brief: as §1

[8] = test system: Foxtail, Giant (giant foxtail, Setaria faberi); assay: Test A preemergence, Foxtail, Giant; conditions: Preemergence; for Plant response rating, Foxtail, Giant: 0 to 100 scale (0 no effect, 100 complete control); for Foxtail, Giant plant response rating: 125 g ai/ha, visual injury on 0 to 100 scale (0 no effect, 100 complete control), approximately 10 days
Method in brief: as §1

[9] = test system: pigweed (Amaranthus retroflexus); assay: Test A postemergence, pigweed; conditions: Postemergence; for Pigweed plant response rating: 500 g ai/ha, visual injury vs untreated controls after approx. 10 days
Method in brief: as §1

[10] = test system: galium (catchweed bedstraw, Galium aparine); assay: Test A postemergence, galium; conditions: Postemergence; for Galium plant response rating: 500 g ai/ha, visual injury vs untreated controls after approx. 10 days
Method in brief: as §2

corn (Zea mays) = assay: Test A postemergence, corn; conditions: Postemergence; for Corn plant response rating: 500 g ai/ha, visual injury vs untreated controls after approx. 10 days
Method in brief: as §1

[11] = test system: Ryegrass, Italian (Italian ryegrass, Lolium multiflorum); assay: Test A preemergence, Ryegrass, Italian; conditions: Preemergence; for Plant response rating, Ryegrass, Italian: 0 to 100 scale (0 no effect, 100 complete control); for Ryegrass, Italian plant response rating: 125 g ai/ha, visual injury on 0 to 100 scale (0 no effect, 100 complete control), approximately 10 days
Method in brief: as §1

[12] = test system: wheat (Triticum aestivum); assay: Test A postemergence, wheat; conditions: Postemergence; for Wheat plant response rating: 500 g ai/ha, visual injury vs untreated controls after approx. 10 days
Method in brief: as §2

[13] = test system: blackgrass (Alopecurus myosuroides); assay: Test A postemergence, blackgrass; conditions: Postemergence; for Blackgrass plant response rating: 500 g ai/ha, visual injury vs untreated controls after approx. 10 days
Method in brief: as §1

kochia (Bassia scoparia) [14] = assay: Test A preemergence, kochia; conditions: Preemergence; for Plant response rating, Kochia: 0 to 100 scale (0 no effect, 100 complete control); for Kochia plant response rating: 125 g ai/ha, visual injury on 0 to 100 scale (0 no effect, 100 complete control), approximately 10 days
Method in brief: as §1

[15] = test system: barnyardgrass (Echinochloa crus-galli); assay: Test A postemergence, barnyardgrass; conditions: Postemergence; for Barnyardgrass plant response rating: 500 g ai/ha, visual injury vs untreated controls after approx. 10 days
Method in brief: as §2

[16] = 31 g ai/ha, visual injury, approx. 10 days
[17] = 31 g ai/ha, visual injury on 0 to 100 scale (0 no effect, 100 complete control), approx. 10 days
[18] = 125 g ai/ha, 0 to 100 scale (0 no effect, 100 complete control)
[19] = 0 to 100 scale (0 no effect, 100 complete control)
[20] = 125 g ai/ha, visual injury approx. 10 days, 0 to 100 scale (0 no effect, 100 complete control)

Row | SMILES | Ragweed plant response rating [1] | Pigweed plant response rating [2] | Plant response rating, Foxtail, Giant [3, 18] | Plant response rating, Kochia (kochia (Bassia scoparia) [4]; [18]) | Barnyardgrass plant response rating [5] | Plant response rating, Ryegrass, Italian [6, 18] | Plant response rating, Ragweed [7, 18] | Foxtail, Giant plant response rating [8] | Plant response rating, Pigweed [9, 18] | Plant response rating, Galium [10, 18] | Plant response rating, Corn (corn (Zea mays); [18]) | Ryegrass, Italian plant response rating [11] | Plant response rating, Wheat [12, 18] | Plant response rating, Blackgrass [13, 18] | Kochia plant response rating (kochia (Bassia scoparia) [14]) | Plant response rating, Barnyardgrass [15, 18] | Plant response rating, Ragweed ([1]; 500 g ai/ha) | Plant response rating, Pigweed ([2]; 500 g ai/ha) | Foxtail, Giant plant response rating [3, 19] | Kochia plant response rating (kochia (Bassia scoparia) [4]; [19]) | also measured
1 | Cc1cc(C)c(C2=NOC3(C2)CC(C)CC(C)C3)cc1NS(=O)(=O)C(F)(F)F (single isomer, unassigned) [Compound 168] | 0 | 10 | 10 | 10 | 60 | 30 | 60 | 0 | 80 | 90 | 0 | 40 | 0 | 10 | 20 | 70 |  |  |  |  | Plant response rating, Ragweed [1, 16]: 0; Plant response rating, Pigweed [2, 16]: 0; Plant response rating, Foxtail, Giant [3, 17]: 0; Plant response rating, Kochia (kochia (Bassia scoparia) [4]; [17]): 0; Plant response rating, Barnyardgrass [5, 16]: 0; Plant response rating, Ryegrass, Italian [6, 17]: 0; Plant response rating, Ragweed [7, 17]: 0; Plant response rating, Foxtail, Giant [8, 16]: 0; Plant response rating, Pigweed [9, 17]: 60; Plant response rating, Galium [10, 17]: 70; Plant response rating, Corn (corn (Zea mays); [17]): 0; Plant response rating, Ryegrass, Italian [11, 16]: 0; Plant response rating, Wheat [12, 17]: 0; Plant response rating, Blackgrass [13, 17]: 0; Plant response rating, Kochia (kochia (Bassia scoparia) [14]; [16]): 0; Plant response rating, Barnyardgrass [15, 17]: 30
2 | Cc1cc(Cl)c(C2=NOC(C)(C)C2)cc1N(S(=O)(=O)C(F)(F)F)S(=O)(=O)C(F)(F)F [Compound 184] | 80 | 70 | 0 | 0 | 70 | 0 | 40 | 30 | 20 | 80 | 0 | 30 | 0 | 0 | 0 | 20 | 90 | 100 | 0 | 30 | Plant response rating, Barnyardgrass ([5]; 500 g ai/ha): 100; Ryegrass, Italian plant response rating [6, 19]: 0; Ragweed plant response rating [7, 19]: 70; Plant response rating, Foxtail, Giant ([8]; 500 g ai/ha): 90; Pigweed plant response rating [9, 19]: 40; Galium plant response rating [10, 19]: 90; Corn plant response rating (corn (Zea mays); [19]): 0; Plant response rating, Ryegrass, Italian ([11]; 500 g ai/ha): 50; Wheat plant response rating [12, 19]: 0; Blackgrass plant response rating [13, 19]: 20; Plant response rating, Kochia (kochia (Bassia scoparia) [14]; 500 g ai/ha): 0; Barnyardgrass plant response rating [15, 19]: 50
3 | Cc1cc(C(F)(F)F)c(C(=O)N(C)C)cc1NS(=O)(=O)C(F)(F)F [Compound 133] | 20 | 30 |  |  | 30 | 30 | 90 | 10 | 60 |  |  | 20 | 0 |  | 0 |  | 90 | 90 | 10 | 20 | Plant response rating, Foxtail, Giant [3, 20]: 0; Plant response rating, Kochia (kochia (Bassia scoparia) [4]; [20]): 20; Plant response rating, Barnyardgrass ([5]; 500 g ai/ha): 90; Ryegrass, Italian plant response rating [6, 19]: 40; Ragweed plant response rating [7, 19]: 80; Plant response rating, Foxtail, Giant ([8]; 500 g ai/ha): 90; Pigweed plant response rating [9, 19]: 90; Plant response rating, Galium [10, 20]: 80; Galium plant response rating [10, 19]: 90; Plant response rating, Corn (corn (Zea mays); [20]): 10; Corn plant response rating (corn (Zea mays); [19]): 10; Plant response rating, Ryegrass, Italian ([11]; 500 g ai/ha): 90; Wheat plant response rating [12, 19]: 50; Plant response rating, Blackgrass [13, 20]: 0; Blackgrass plant response rating [13, 19]: 0; Plant response rating, Kochia (kochia (Bassia scoparia) [14]; 500 g ai/ha): 0; Plant response rating, Barnyardgrass [15, 20]: 0; Barnyardgrass plant response rating [15, 19]: 10
